Laboratory results from patent publication US20220220103A1, “CYCLIN-DEPENDENT KINASE INHIBITORS” (SPV THERAPEUTICS INC., priority 2018, published 2022).
Several values for one entry are separate records, joined by “and”; a condition that tells them apart may be missing. Identical values can stand only once. Like-named read-outs stand apart in the source and are kept apart here.

Tests used:
Assay type in all cases: biochemical
[1] = biological target: CDK1/B (Homo sapiens, UniProt P06493); experiment: Inhibition assay, CDK1/B; conditions: read-out: CDK1/B IC50
Chain of CDK1/B (P06493 whole entry): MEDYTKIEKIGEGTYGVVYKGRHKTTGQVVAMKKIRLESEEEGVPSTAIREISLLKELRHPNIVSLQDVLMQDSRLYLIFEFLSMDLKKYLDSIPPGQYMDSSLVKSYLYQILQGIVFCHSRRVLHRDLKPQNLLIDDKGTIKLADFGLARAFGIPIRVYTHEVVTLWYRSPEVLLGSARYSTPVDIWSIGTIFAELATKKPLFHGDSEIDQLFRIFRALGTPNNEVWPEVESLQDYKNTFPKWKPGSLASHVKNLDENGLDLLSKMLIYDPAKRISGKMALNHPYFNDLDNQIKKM
Chain of CDK1/B (P14635 whole entry partner): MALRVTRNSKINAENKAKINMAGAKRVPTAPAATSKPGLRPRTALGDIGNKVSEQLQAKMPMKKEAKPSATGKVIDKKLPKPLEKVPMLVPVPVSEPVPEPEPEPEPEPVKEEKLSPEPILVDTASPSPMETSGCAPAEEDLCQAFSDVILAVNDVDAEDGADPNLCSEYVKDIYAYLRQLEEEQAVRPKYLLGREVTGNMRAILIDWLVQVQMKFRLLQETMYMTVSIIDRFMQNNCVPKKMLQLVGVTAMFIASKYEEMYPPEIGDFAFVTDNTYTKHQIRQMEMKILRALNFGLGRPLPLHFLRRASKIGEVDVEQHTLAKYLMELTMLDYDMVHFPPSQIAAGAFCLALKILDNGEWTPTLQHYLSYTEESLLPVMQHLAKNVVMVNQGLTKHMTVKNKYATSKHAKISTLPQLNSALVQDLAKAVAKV
Protocol: (§1) The reaction was terminated by the addition of EDTA. The plates were analyzed using a Caliper LabChip 3000.
(§2) Additional inhibition assays were performed as described above.

[2] = biological target: CDK2-CYCLINA (Homo sapiens, UniProt P24941); experiment: Microfluidic LabChip inhibition assay, CDK2-CYCLINA; conditions: ATP 50 μM
Protocol: as §1, §2

[3] = biological target: CDK7 CyclinH (Homo sapiens, UniProt P50613); experiment: Inhibition assay, CDK7 CyclinH
Chain of CDK7 CyclinH (P50613 whole entry): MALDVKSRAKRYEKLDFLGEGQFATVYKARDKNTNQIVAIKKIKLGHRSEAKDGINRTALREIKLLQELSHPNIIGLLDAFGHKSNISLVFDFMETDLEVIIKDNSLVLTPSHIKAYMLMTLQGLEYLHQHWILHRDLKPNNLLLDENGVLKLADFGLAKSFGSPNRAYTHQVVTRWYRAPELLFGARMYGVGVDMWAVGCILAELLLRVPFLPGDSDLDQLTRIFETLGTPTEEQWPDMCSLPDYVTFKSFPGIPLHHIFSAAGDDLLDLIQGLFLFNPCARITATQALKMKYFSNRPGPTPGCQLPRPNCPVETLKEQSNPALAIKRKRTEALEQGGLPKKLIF
Chain of CDK7 CyclinH (P51946 whole entry partner): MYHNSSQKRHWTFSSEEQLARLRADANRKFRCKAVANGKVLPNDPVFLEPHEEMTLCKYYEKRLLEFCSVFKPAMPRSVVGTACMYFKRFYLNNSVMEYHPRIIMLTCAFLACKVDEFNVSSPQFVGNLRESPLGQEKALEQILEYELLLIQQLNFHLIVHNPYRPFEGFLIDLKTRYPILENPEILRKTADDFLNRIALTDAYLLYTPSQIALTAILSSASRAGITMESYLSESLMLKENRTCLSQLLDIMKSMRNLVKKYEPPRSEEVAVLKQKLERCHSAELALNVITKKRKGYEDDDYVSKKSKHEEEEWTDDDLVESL
Chain of CDK7 CyclinH (P51948 whole entry partner): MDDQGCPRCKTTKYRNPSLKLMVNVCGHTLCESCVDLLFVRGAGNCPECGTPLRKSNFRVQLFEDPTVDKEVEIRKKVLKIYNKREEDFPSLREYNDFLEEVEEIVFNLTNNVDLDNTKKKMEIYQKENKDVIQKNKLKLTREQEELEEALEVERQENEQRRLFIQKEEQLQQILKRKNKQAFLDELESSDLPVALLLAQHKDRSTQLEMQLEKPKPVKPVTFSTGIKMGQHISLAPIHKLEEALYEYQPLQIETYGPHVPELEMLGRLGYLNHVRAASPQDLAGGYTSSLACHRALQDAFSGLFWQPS
Protocol: as §1, §2

[4] = biological target: CDK4-CYCLIND1 (Homo sapiens, UniProt P11802); experiment: Microfluidic LabChip inhibition assay, CDK4-CYCLIND1; conditions: ATP 200 μM, second values in parentheses on the line below, not explained, read-out: CDK4 CyclinD1 IC50
Chain of CDK4-CYCLIND1 (P11802 whole entry): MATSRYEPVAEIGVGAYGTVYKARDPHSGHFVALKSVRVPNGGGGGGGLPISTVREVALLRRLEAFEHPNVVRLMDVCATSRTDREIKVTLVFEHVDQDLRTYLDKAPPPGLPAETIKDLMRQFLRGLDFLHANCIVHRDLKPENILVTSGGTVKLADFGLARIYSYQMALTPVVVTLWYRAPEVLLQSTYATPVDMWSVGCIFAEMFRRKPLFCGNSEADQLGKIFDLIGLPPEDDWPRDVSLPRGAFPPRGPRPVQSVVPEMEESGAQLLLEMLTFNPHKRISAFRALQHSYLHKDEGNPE
Chain of CDK4-CYCLIND1 (P24385 whole entry partner): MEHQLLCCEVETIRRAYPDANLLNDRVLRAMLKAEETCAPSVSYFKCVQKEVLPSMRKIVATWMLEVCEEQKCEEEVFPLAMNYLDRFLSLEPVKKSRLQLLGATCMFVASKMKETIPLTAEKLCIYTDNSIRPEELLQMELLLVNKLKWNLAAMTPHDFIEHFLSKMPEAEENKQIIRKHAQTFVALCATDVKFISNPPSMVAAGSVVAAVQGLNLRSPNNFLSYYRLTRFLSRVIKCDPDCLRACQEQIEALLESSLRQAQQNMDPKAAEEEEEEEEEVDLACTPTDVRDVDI
Protocol: as §1, §2

[5] = biological target: CDK9-CYCLINT1 (Homo sapiens, UniProt P50750); experiment: Microfluidic LabChip inhibition assay, CDK9-CYCLINT1; conditions: ATP 10 μM
Chain of CDK9-CYCLINT1 (P50750 whole entry): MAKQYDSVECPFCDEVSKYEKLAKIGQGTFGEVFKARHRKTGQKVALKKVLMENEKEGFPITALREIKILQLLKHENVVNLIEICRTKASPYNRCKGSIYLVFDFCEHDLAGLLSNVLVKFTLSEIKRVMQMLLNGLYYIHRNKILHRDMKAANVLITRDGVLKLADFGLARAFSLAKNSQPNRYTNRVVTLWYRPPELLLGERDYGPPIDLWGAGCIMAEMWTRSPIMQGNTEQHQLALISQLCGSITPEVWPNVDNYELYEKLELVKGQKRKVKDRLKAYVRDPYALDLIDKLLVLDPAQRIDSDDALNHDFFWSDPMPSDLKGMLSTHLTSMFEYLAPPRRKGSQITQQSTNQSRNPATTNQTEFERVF
Chain of CDK9-CYCLINT1 (O60563 whole entry partner): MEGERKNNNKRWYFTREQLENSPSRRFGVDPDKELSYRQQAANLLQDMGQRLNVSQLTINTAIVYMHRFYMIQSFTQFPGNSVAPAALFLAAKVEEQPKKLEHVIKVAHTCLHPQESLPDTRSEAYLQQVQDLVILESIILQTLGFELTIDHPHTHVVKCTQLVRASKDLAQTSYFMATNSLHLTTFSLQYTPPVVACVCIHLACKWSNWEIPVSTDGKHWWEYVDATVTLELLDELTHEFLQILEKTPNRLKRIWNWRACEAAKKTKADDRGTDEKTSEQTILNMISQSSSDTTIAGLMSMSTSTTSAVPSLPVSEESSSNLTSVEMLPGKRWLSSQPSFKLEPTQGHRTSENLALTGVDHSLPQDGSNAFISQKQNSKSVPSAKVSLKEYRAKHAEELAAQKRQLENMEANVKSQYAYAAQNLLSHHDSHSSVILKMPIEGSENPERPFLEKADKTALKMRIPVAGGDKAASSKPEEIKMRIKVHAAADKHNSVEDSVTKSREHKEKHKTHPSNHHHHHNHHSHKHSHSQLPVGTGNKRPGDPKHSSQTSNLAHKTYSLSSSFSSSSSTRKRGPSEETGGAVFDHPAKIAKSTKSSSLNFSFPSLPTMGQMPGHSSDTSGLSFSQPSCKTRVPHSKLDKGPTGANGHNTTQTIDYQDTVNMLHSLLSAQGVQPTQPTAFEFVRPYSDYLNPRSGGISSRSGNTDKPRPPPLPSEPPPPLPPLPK
Protocol: as §1, §2

[6] = biological target: CDK6-CYCLIND3 (Homo sapiens, UniProt Q00534); experiment: Microfluidic LabChip inhibition assay, CDK6-CYCLIND3; conditions: Table 3a; ATP 300 μM; read-out: CDK6 CyclinD3 IC50
Chain of CDK6-CYCLIND3 (Q00534 whole entry): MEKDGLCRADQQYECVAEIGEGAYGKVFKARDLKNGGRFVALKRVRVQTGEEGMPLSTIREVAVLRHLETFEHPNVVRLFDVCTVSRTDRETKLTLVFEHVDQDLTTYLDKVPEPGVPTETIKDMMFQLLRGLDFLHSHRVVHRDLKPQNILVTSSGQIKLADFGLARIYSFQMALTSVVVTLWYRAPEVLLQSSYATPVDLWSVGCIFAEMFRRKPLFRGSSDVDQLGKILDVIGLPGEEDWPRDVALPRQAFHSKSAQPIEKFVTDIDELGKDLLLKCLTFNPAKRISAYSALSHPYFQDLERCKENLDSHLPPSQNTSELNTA
Chain of CDK6-CYCLIND3 (P30281 whole entry partner): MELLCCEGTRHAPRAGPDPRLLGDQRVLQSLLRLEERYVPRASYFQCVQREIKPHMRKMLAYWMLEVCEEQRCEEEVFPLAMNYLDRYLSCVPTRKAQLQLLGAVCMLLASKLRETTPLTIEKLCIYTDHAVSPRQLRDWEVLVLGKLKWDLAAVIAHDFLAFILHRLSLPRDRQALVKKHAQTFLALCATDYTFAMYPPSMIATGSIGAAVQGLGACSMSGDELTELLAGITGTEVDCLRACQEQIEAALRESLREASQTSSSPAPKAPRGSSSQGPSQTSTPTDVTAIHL
Protocol: as §1, §2

SMILES | IC50 ([1]; Table 3a) [nM] | IC50 ([2]; Table 3a) [nM] | IC50 ([2]; Table 3b) [nM] | IC50 ([3]; Table 3a) [nM] | IC50 ([3]; Table 3b) [nM] | IC50 ([4]; Table 3a) | IC50 ([4]; Table 3b) | IC50 ([5]; Table 3a) [nM] | IC50 ([5]; Table 3b) [nM] | IC50 [6] [nM] | IC50 ([1]; Table 3b) [nM]
CC(=O)c1c(C)c2cnc(Nc3ccc(OCCN(C)C)cc3)nc2n(C2CCCC2)c1=O [Compound B59, 6-acetyl-8-cyclopentyl-2-((4-(2-(dimethylamino)ethoxy)phenyl)amino)-5-methylpyrido[2,3-d]pyrimidin-7(8H)-one] | 527 | 211 | 211 | 640 | 640 | < 3.2 nM | < 3.2 nM | < 3.2 | < 3.2 | – | –
CC(=O)c1c(C)c2cnc(Nc3ccc(OCCN(C)C)cc3)nc2n(C2CCCC2)c1=O [Compound B60, 6-acetyl-8-cyclopentyl-2-((4-(2-(dimethylamino)ethoxy)phenyl)amino)-5-methylpyrido[2,3-d]pyrimidin-7(8H)-one] | – | 77.5 | 77.5 | 1100 | 1100 | 3 nM and 1.6 nM | 3 nM and 1.6 nM | 31.8 | 31.8 | 10.1 | –
CC(=O)c1c(C)c2cnc(Nc3ccc(OCCN(C)C)c(C)c3)nc2n(C2CCCC2)c1=O [Compound B61, 6-acetyl-8-cyclopentyl-2-((4-(2-(dimethylamino)ethoxy)-3-methylphenyl)amino)-5-methylpyrido[2,3-d]pyrimidin-7(8H)-one] | – | 7730 | 7730 | > 100000 | > 100000 | 1600 nM | 1600 nM | 790 | 790 | 3950 | –
COc1cc(Nc2ncc3c(C)c(C(C)=O)c(=O)n(C4CCCC4)c3n2)ccc1OCCN(C)C [Compound B62, 6-acetyl-8-cyclopentyl-2-((4-(2-(dimethylamino)ethoxy)-3-methoxyphenyl)amino)-5-methylpyrido[2,3-d]pyrimidin-7(8H)-one] | – | 280 | 280 | 1300 | 1300 | 26.3 nM and 14 nM | 26.3 nM and 14 nM | 336 | 336 | 37.5 | –
CC(=O)c1c(C)c2cnc(Nc3ccc(OCCN4CCCC4)cn3)nc2n(C2CCCC2)c1=O [Compound B66, 6-acetyl-8-cyclopentyl-5-methyl-2-((5-(2-(pyrrolidin-1-yl)ethoxy)pyridin-2-yl)amino)pyrido[2,3-d]pyrimidin-7(8H)-one] | > 10000 | > 10000 | > 10000 | > 10000 | > 10000 | 15.2 nM | 15.2 nM | 422 | 422 | – | > 10000
CC(=O)c1c(C)c2cnc(Nc3ccc(N4CCN(C)CC4)cn3)nc2n(C23CC(C2)C3)c1=O [Compound B93, 6-acetyl-8-(bicyclo[1.1.1]pentan-1-yl)-5-methyl-2-((5-(4-methylpiperazin-1-yl)pyridin-2-yl)amino)pyrido[2,3-d]pyrimidin-7(8H)-one] | > 10000 | > 10000 | > 10000 | > 10000 | > 10000 | 48.3 nM | 48.3 nM | 1230 | 1230 | – | > 10000
CC(=O)c1c(C)c2cnc(Nc3ccc(N4CCN(C)CC4)cc3)nc2n(C23CC(C2)C3)c1=O [Compound B96, 6-acetyl-8-(bicyclo[1.1.1]pentan-1-yl)-5-methyl-2-((4-(4-methylpiperazin-1-yl)phenyl)amino)pyrido[2,3-d]pyrimidin-7(8H)-one] | 4040 | 2790 | 2790 | 2840 | 2840 | 7.54 nM | 7.54 nM | 97.6 | 97.6 | – | –
N#Cc1cc2cnc(Nc3ccc(N4CCN(CCO)CC4)c(F)c3)nc2n(C2CCCC2)c1=O [Compound B106, 8-cyclopentyl-2-((3-fluoro-4-(4-(2-hydroxyethyl)piperazin-1-yl)phenyl)amino)-7-oxo-7,8-dihydropyrido[2,3-d]pyrimidine-6-carbonitrile] | 509 | 308 | 308 | 327 | 327 | < 3.2 nM | < 3.2 nM | 27.5 | 27.5 | – | –
CS(=O)(=O)N1CCC(Nc2ncc3cc(C#N)c(=O)n(C45CC(C4)C5)c3n2)CC1 [Compound B113, 8-(bicyclo[1.1.1]pentan-1-yl)-2-((1-(methylsulfonyl)piperidin-4-yl)amino)-7-oxo-7,8-dihydropyrido[2,3-d]pyrimidine-6-carbonitrile] | > 10000 | > 10000 | > 10000 | > 10000 | > 10000 | > 10000 nM | > 10000 nM | > 10000 | > 10000 | – | > 10000
